Data set [1] concerns Nucleic Acid. The data set can be described thus: Relative intensity of DNA alkylation at the high affinity alkylation site [5'-d(AATB)-3'] within w794 DNA at 4 degrees C, 24 h. It counts as functional.
Data set [2] has as its system Mus musculus. In words: In vivo antitumor activity of 39 ug/kg.day subcutaneously administered compound against Ip implanted L1210 tumor in mouse. The format is functional.
Data set [3] concerns Mus musculus. In words: Survivors at day 18 at 39 ug/kg.day; value is given as 4/6 and no evidence of residual tumor found. It counts as functional, organism-based.
Data set [4] relates to Mus musculus. In words: In vivo antitumor activity of 29 ug/kg.day subcutaneously administered compound against Ip implanted L1210 tumor in mouse. The format is functional.
The nature of data set [5]: Relative stability based on solvolysis studies. It counts as physicochemical.
The nature of data set [6]: Half-life was determined. The format is ADME. The following applies: human.
Data set [7] relates to L1210. The data set can be described thus: Relative IC50 for in vitro cytotoxic activity against L1210 mouse lymphocytic leukemia. It counts as functional.
The species entered for data set [8] is Mus musculus. The data set can be described thus: Relative cytotoxic activity against mouse L1210 leukemia. It counts as functional.
For data set [9], the system named is Nucleic Acid. The data set can be described thus: Relative fist order rate constant for alkylation at the high affinity site of DNA. It counts as functional.
Data set [10] concerns Nucleic Acid. The data set can be described thus: Percent alkylation at the high affinity alkylation site [5'-d(AATB)-3'] within w794 DNA at 4 degrees C, 24 h. The format is functional.
Data set [11] has as its system Mus musculus. In words: In vivo antitumor activity of 10 ug/kg.day subcutaneously administered compound against Ip implanted L1210 tumor in mouse. The format is functional.
The subject of data set [12] is L1210. In words: Inhibitory concentration required for 50% in vitro cytotoxic activity was determined against L1210 mouse lymphocytic leukemia at 10 pM. It counts as functional, cell-based.
For data set [13], the system named is Mus musculus. In words: In vivo antitumor activity of 5 ug/kg.day subcutaneously administered compound against Ip implanted L1210 tumor in mouse. The format is functional.
The subject of data set [14] is Mus musculus. The data set can be described thus: Survivors at day 18 at 29 ug/kg.day; value is given as 1/6 and no evidence of residual tumor found. The format is functional, organism-based.
The subject of data set [15] is Mus musculus. In words: In vivo antitumor activity of 19 ug/kg.day subcutaneously administered compound against Ip implanted L1210 tumor in mouse. The format is functional.
The test system of data set [16] is Nucleic Acid. The data set can be described thus: Percent alkylation at the high affinity alkylation site [5'-d(AATB)-3'] within w794 DNA at 4 degrees C, 24 h; range is 5-10 %. The format is functional.
In data set [17] the test system is L1210. The data set can be described thus: Inhibitory concentration required for 50% in vitro cytotoxic activity was determined against L1210 mouse lymphocytic leukemia at 40 pM. It counts as functional, cell-based.
Data set [18] has as its system Mus musculus. The data set can be described thus: In vivo antitumor activity of 75 ug/kg.day subcutaneously administered compound against P388 leukemia in mouse. The format is functional.

SMILES strings stand for the structures. Values after ≈ are worked out from the molar mass of the structure shown. Values joined by “and” are separate entries in the source; they are usually repeats but may differ in a detail not shown here. Equal values may be shown once. Some results are limits rather than exact numbers.

By half-life is commonly meant the time in which the quantity being followed falls by half. The IC50 is the concentration needed to halve the response being measured. A low value points to greater potency in that assay.

For `O=C(Nc1ccc2[nH]c(C(=O)N3C[C@H]4C[C@@]45C3=CC(=O)c3ccccc35)cc2c1)c1cc2ccccc2[nH]1`, the Relative intensity in the data set with Nucleic Acid [1] amounted to 1. Besides, the T/C was greater than 200 with Mus musculus [2]; greater than 175 in the data set on Mus musculus [4]; 156 in the data set with Mus musculus [11]; 120 in the data set on Mus musculus [13]; 162 in the data set with Mus musculus [15]. The Survivors result with Mus musculus [3] and with Mus musculus [14] was “No evidence of residual tumor found” each time. For the same compound, the Relative stability in data set [5] is recorded as 1. Further, the half-life in [6] was 133 h. In the data set on L1210 [7], this compound displayed a Cytotoxic activity of 1. The compound also displayed a Relative cytotoxic activity in the data set filed under Mus musculus [8] of 1. In the data set on Nucleic Acid [9], this compound registered a rel k of 1. In the data set with Nucleic Acid [10], this compound yielded a DNA alkylation of 93%. The same compound yielded an IC50 in the data set with L1210 [12] of 0.005 ng/mL (≈ 0.01 nM).

The compound `Cc1c[nH]c2c1C13CC1CN(C(=O)c1cc4cc(NC(=O)c5cc6ccccc6[nH]5)ccc4[nH]1)C3=CC2=O` (single isomer, unassigned; (+)) returned a Relative intensity with Nucleic Acid [1] of 0.1. Further, the T/C with Mus musculus [2] is 129; with Mus musculus [4] it was 118; in the data set with Mus musculus [18] it was 259; in the data set with Mus musculus [11] it was 114 and 133; in the data set with Mus musculus [15], 113. The Relative stability in data set [5] worked out at 0.27. In data set [6], the half-life was 36.7 h. The compound further came in with a Cytotoxic activity in the data set with L1210 [7] of 0.25. In the data set filed under Mus musculus [8], this compound returned a Relative cytotoxic activity of 0.25. Moreover, the DNA alkylation in the data set with Nucleic Acid [16] turned out to be 10%. This compound also registered a rel k in the data set with Nucleic Acid [9] of 0.07. For the same compound, half-maximal inhibition with L1210 [17] (IC50) was put at 0.02 ng/mL (≈ 0.0399 nM).

The record behind these values is ChEMBL document CHEMBL1125807, “Synthesis and preliminary evaluation of (+)-CBI-indole2: an enhanced functional analog of (+)-CC-1065” (Bioorg Med Chem Lett, 1991).
